This passage reports IC50 results from patent US20230339866A1, “Quinazoline compounds and the use thereof in the treatment of cancer” (TROBIO THERAPEUTICS PTY LTD, priority 2020, published 2023).

Each structure is given as a SMILES string. Bounds are passed on as bounds.

One experiment deals with A549 (NSCLC). Kind of experiment: Anti-proliferative activity (Cell-Titre luminescence) against A549 non-small cell lung cancer cells. In kind it is cell-based. The following applies: Homo sapiens, A549, 72 h, 72 h exposure, Cell-Titre luminescent reagent. Here is the method: (§1) The ability of compounds of the invention to inhibit the proliferation of cancer cells representative of non-small cell lung cancer and ovarian cancer (Table 2), pancreatic cancer, colorectal cancer and prostate cancer (Table 3) was assessed. Briefly, a predetermined number of cells as calculated from cell growth assays for each of the cell lines employed were seeded into their respective culture medium (using ATCC culture parameters—http://www.atcc.org) and cultured for 24 h at 37° C. and 5% CO2 in 96-well culture plates. Once attached, each cell line was then exposed to various concentrations of each respective analogue (30, 10, 3, 1, 0.3 and 0.1 μM), cultured for a further 72 h and exposed to Cell-Titre luminescent reagent (100 μL/well) for a further 30 min. Luminescence was captured using an EnVision multilabel reader and the data for each analogue concentration compared against no treatment control. Cell viability was normalised to control (vehicle alone) and dose response curves, and half maximal effective concentration (EC50) values were determined using Graph Pad Prism 6 (nonlinear regression sigmoidal dose-response variable slope).

The subject of another experiment is A2780 (ovarian). Kind of experiment: Anti-proliferative activity (Cell-Titre luminescence) against A2780 ovarian cancer cells. It counts as cell-based. The following applies: Homo sapiens, A2780, 72 h, 72 h exposure, Cell-Titre luminescent reagent. On the procedure:
as §1

On to `COc1ccc(Nc2nc(NCCN3CCN(C)CC3)c3ccccc3n2)cc1` [Compound 44, N^2-(4-methoxyphenyl)-N^4-(2-(4-methylpiperazin-1-yl)ethyl)quinazoline-2,4-diamine], for which the IC50 in the experiment on A549 (NSCLC) stood at 5.8 µM; in the experiment on A2780 (ovarian) it was 2.49 µM.
Take `CN1CCN(CCNc2nc(NCc3ccccc3)nc3ccccc23)CC1` [Compound 45, N^2-benzyl-N^4-(2-(4-methylpiperazin-1-yl)ethyl)quinazoline-2,4-diamine]: the values for the half-inhibitory concentration (IC50) in the experiment with A549 (NSCLC) and in the experiment on A2780 (ovarian) were 18.4 µM and 8.55 µM, respectively.
Taken in the same sequence, the figures for `CN1CCN(CCNc2nc(NCc3cccc(C(F)(F)F)c3)nc3ccccc23)CC1` [Compound 46, N^4-(2-(4-methylpiperazin-1-yl)ethyl)-N^2-(3-(trifluoromethyl)benzyl)quinazoline-2,4-diamine] were 3.04 µM and 2.34 µM.
Regarding `CN1CCN(CCNc2nc(NCc3ccc(C(F)(F)F)cc3)nc3ccccc23)CC1` [Compound 47, N^4-(2-(4-methylpiperazin-1-yl)ethyl)-N^2-(4-(trifluoromethyl)benzyl)quinazoline-2,4-diamine], the results for the concentration for half-maximal inhibition (IC50) in the experiment with A549 (NSCLC) and in the experiment on A2780 (ovarian) were 3.28 µM and 6.13 µM, respectively.
On the same counts, the results for `COc1cccc(CNc2nc(NCCN3CCN(C)CC3)c3ccccc3n2)c1` [Compound 48, N^2-(3-methoxybenzyl)-N^4-(2-(4-methylpiperazin-1-yl)ethyl)quinazoline-2,4-diamine] are 7.4 µM and 4.52 µM.
In the case of `COc1ccc(CNc2nc(NCCN3CCN(C)CC3)c3ccccc3n2)cc1` [Compound 49, N^2-(4-methoxybenzyl)-N^4-(2-(4-methylpiperazin-1-yl)ethyl)quinazoline-2,4-diamine], the IC50 in the experiment on A549 (NSCLC) worked out at 8.77 µM; with A2780 (ovarian) it was 6.87 µM.
Taken in the same sequence, the figures for `CN1CCN(CCNc2nc(NCCc3ccccc3)nc3ccccc23)CC1` [Compound 50, N^4-(2-(4-methylpiperazin-1-yl)ethyl)-N^2-phenethylquinazoline-2,4-diamine] were 5.3 µM and 7.68 µM.
On the same counts, the results for `CN1CCN(CCNc2nc(NCCc3ccc(C(F)(F)F)cc3)nc3ccccc23)CC1` [Compound 52, N^4-(2-(4-methylpiperazin-1-yl)ethyl)-N^2-(4-(trifluoromethyl)phenethyl)quinazoline-2,4-diamine] are 5.6 µM and 1.19 µM.
Taken in the same sequence, the figures for `COc1cccc(CCNc2nc(NCCN3CCN(C)CC3)c3ccccc3n2)c1` [Compound 53, N^2-(3-methoxyphenethyl)-N^4-(2-(4-methylpiperazin-1-yl)ethyl)quinazoline-2,4-diamine] were over 30 µM and 18.2 µM.
Regarding `CCc1ccc(Nc2nc(NCCN3CCN(C)CC3)c3ccccc3n2)cc1` [Compound 55, N^2-(4-ethylphenyl)-N^4-(2-(4-methylpiperazin-1-yl)ethyl)quinazoline-2,4-diamine], the concentration for half-maximal inhibition (IC50) in the experiment with A549 (NSCLC) was 4.45 µM; in the experiment with A2780 (ovarian), 7.16 µM.
Taken in the same sequence, the figures for `CN1CCN(CCNc2nc(NCCc3cccc(F)c3)nc3ccccc23)CC1` [Compound 58, N^2-(3-fluorophenethyl)-N^4-(2-(4-methylpiperazin-1-yl)ethyl)quinazoline-2,4-diamine] were 5.85 µM and 6.22 µM.
For `CN1CCN(CCNc2nc(NCCc3ccc(F)cc3)nc3ccccc23)CC1` [Compound 59, N^2-(4-fluorophenethyl)-N^4-(2-(4-methylpiperazin-1-yl)ethyl)quinazoline-2,4-diamine], the IC50 with A549 (NSCLC) was determined as 3.7 µM; in the experiment with A2780 (ovarian) it was 5.54 µM.
Taken in the same sequence, the figures for `COc1ccc(Nc2nc(NCCN(C)C)c3ccccc3n2)cc1` [Compound 61, N^4-(2-(dimethylamino)ethyl)-N^2-(4-methoxyphenyl)quinazoline-2,4-diamine] were 11.9 µM and 7.09 µM.
On the same counts, the results for `CCc1ccc(Nc2nc(NCCN(C)C)c3ccccc3n2)cc1` [Compound 62, N^4-(2-(dimethylamino)ethyl)-N^2-(4-ethylphenyl)quinazoline-2,4-diamine] are 7.5 µM and 13.1 µM.
On the same counts, the results for `CN(C)CCNc1nc(Nc2cccc(F)c2)nc2ccccc12` [Compound 63, N^4-(2-(dimethylamino)ethyl)-N^2-(3-fluorophenyl)quinazoline-2,4-diamine] are 19.8 µM and 5.67 µM.
Consider `COc1ccc(CCNc2nc(NCCN(C)C)c3ccccc3n2)cc1` [Compound 65, N^4-(2-(dimethylamino)ethyl)-N^2-(4-methoxyphenethyl)quinazoline-2,4-diamine], for which the results for the IC50 in the experiment on A549 (NSCLC) and in the experiment with A2780 (ovarian) were 19.4 µM and 6.17 µM, respectively.
As for `CCc1ccc(CCNc2nc(NCCN(C)C)c3ccccc3n2)cc1` [Compound 66, N^4-(2-(dimethylamino)ethyl)-N^2-(4-ethylphenethyl)quinazoline-2,4-diamine], the half-inhibitory concentration (IC50) was over 30 µM in the experiment on A549 (NSCLC) and 13.7 µM in the experiment on A2780 (ovarian).
On to `CN(C)CCNc1nc(NCCc2cccc(F)c2)nc2ccccc12` [Compound 67, N^4-(2-(dimethylamino)ethyl)-N^2-(3-fluorophenethyl)quinazoline-2,4-diamine], for which the half-inhibitory concentration (IC50) came to 5.9 µM in the experiment with A549 (NSCLC) and 7.59 µM in the experiment with A2780 (ovarian).
On the same counts, the results for `CN(C)CCNc1nc(NCCc2ccc(F)cc2)nc2ccccc12` [Compound 68, N^4-(2-(dimethylamino)ethyl)-N^2-(4-fluorophenethyl)quinazoline-2,4-diamine] are 6.65 µM and 3.91 µM.
Taken in the same sequence, the figures for `COc1ccc(Nc2nc(NCCCN(C)C)c3ccccc3n2)cc1` [Compound 70, N^4-(3-(dimethylamino)propyl)-N^2-(4-methoxyphenyl)quinazoline-2,4-diamine] were 11.7 µM and 8.33 µM.
On to `CN(C)CCCNc1nc(Nc2cccc(F)c2)nc2ccccc12` [Compound 72, N^4-(3-(dimethylamino)propyl)-N^2-(3-fluorophenyl)quinazoline-2,4-diamine], for which the concentration for half-maximal inhibition (IC50) came out at 11.2 µM in the experiment on A549 (NSCLC) and 3.43 µM in the experiment on A2780 (ovarian).
Regarding `CN(C)CCCNc1nc(Nc2ccc(F)cc2)nc2ccccc12` [Compound 73, N^4-(3-(dimethylamino)propyl)-N^2-(4-fluorophenyl)quinazoline-2,4-diamine], the IC50 worked out at 11.7 µM in the experiment with A549 (NSCLC) and 2.13 µM in the experiment on A2780 (ovarian).
Consider `CCc1ccc(CCNc2nc(NCCCN(C)C)c3ccccc3n2)cc1` [Compound 76, N^4-(3-(dimethylamino)propyl)-N^2-(4-ethylphenethyl)quinazoline-2,4-diamine], for which the IC50 in the experiment on A549 (NSCLC) amounted to 8.88 µM; in the experiment with A2780 (ovarian), 7.11 µM.
On the same counts, the results for `FC(F)(F)c1cccc(Nc2nc(NCCc3c[nH]cn3)c3ccccc3n2)c1` [Compound 79, N^4-(2-(1H-imidazol-4-yl)ethyl)-N^2-(3-(trifluoromethyl)phenyl)quinazoline-2,4-diamine] are over 30 µM and 18.9 µM.
As to `OCCNc1nc(NCCc2cccc(F)c2)nc2ccccc12` [Compound 90, 2-((2-((3-fluorophenethyl)amino)quinazolin-4-yl)amino)ethan-1-ol], the IC50 in the experiment with A549 (NSCLC) came to 3.87 µM; in the experiment on A2780 (ovarian), 5.19 µM.
Take `OCCNc1nc(NCCc2ccc(F)cc2)nc2ccccc12` [Compound 91, 2-((2-((4-fluorophenethyl)amino)quinazolin-4-yl)amino)ethan-1-ol]: the values for the IC50 in the experiment with A549 (NSCLC) and with A2780 (ovarian) were 6.76 µM and 5.42 µM, respectively.

What is called IC50 is the midpoint of a concentration-inhibition curve.
